Assay results from ChEMBL document CHEMBL6074689 (Eur J Med Chem, 2025).

Experiments:
Cholinesterase = Cholinesterase (Equus caballus, UniProt P81908); experiment: Inhibition of equine serum BChE using acetylthiocholine iodide as substrate preincubated with compound for 30 mins followed by substrate addition and measured after 30 mins by DTNB reagent based Ellman's method
Acetylcholinesterase = Acetylcholinesterase (Homo sapiens, UniProt P22303); experiment: Inhibition of human recombinant AChE expressed in HEK293 cells using acetylthiocholine iodide as substrate preincubated with compound for 30 mins followed by substrate addition and measured after 30 mins by DTNB reagent based Ellman's method
[1] = Antioxidant activity assessed as DPPH radical scavenging activity incubated for 30 mins; assay type: functional
[2] = Antioxidant activity assessed as DPPH radical scavenging activity at 200 uM incubated for 30 mins relative to control; assay type: functional

Sequence of Cholinesterase (P81908 whole entry): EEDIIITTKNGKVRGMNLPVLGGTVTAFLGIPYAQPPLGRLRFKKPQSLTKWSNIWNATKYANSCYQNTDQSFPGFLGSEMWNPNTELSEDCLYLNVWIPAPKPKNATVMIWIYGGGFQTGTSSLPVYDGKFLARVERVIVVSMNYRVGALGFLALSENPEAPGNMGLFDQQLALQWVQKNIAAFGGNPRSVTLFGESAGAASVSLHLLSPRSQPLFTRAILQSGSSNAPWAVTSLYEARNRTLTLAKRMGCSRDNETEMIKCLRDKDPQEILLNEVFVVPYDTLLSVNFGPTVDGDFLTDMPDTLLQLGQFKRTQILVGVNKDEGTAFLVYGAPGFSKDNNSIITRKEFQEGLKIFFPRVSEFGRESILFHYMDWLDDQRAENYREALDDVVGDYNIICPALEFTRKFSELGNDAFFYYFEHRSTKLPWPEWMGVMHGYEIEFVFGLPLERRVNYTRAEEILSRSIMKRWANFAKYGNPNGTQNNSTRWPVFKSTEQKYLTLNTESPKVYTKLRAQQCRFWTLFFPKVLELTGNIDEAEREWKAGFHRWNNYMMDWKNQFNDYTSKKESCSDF
Sequence of Acetylcholinesterase (P22303 whole entry): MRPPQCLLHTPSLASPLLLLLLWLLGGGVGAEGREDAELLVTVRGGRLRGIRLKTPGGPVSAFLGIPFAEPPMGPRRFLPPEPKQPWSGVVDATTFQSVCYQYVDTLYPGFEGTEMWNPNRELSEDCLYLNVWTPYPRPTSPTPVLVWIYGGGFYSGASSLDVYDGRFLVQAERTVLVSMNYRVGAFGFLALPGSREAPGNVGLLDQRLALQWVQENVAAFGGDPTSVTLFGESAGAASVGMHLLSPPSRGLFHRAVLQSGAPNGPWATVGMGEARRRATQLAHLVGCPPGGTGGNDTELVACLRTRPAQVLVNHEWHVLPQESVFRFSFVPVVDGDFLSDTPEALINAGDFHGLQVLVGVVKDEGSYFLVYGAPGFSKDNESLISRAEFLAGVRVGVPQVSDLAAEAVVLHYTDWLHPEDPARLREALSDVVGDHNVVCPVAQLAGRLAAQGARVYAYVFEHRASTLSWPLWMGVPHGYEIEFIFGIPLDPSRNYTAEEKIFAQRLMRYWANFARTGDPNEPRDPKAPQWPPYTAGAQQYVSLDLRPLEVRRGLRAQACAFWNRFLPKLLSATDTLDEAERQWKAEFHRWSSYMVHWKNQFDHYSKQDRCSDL

Work on C[C@H](c1cccc(OC(=O)NCCc2c[nH]c3ccc(Cl)cc23)c1)N(C)C yielded an IC50 (Cholinesterase) of 7.66 nM and an IC50 (Acetylcholinesterase) of 8.38 nM.
Molecule CC(c1cccc(OC(=O)NCCc2c[nH]c3ccccc23)c1)N(C)C (configuration not stated) has an IC50 (Cholinesterase) of 14.8 nM and an IC50 (Acetylcholinesterase) of 24.5 nM.
O=C1O[C@H]([C@@H](O)CO)C(O)=C1O [ASCORBIC ACID] showed an IC50 [1] of 3510 nM.
Cc1ccc2[nH]cc(CCNC(=O)Oc3cccc([C@H](C)N(C)C)c3)c2c1 showed an IC50 (Cholinesterase) of 26.5 nM and an IC50 (Acetylcholinesterase) of 54.7 nM.
With CC(c1cccc(OC(=O)NCCc2c[nH]c3ccc(O)cc23)c1)N(C)C (configuration not stated) the IC50 (Cholinesterase) was 55.8 nM and the IC50 (Acetylcholinesterase) was 2.31 nM.
COc1ccc2[nH]cc(CCNC(=O)Oc3cccc([C@H](C)N(C)C)c3)c2c1 gave an IC50 (Cholinesterase) of 3.15 nM, an Activity [2] of 19.8% and an IC50 (Acetylcholinesterase) of 21.4 nM.
